From ChEMBL document CHEMBL3885881, “DrugMatrix”

Species on record: Rattus norvegicus
Experiment: DrugMatrix - Regimen: Daily Repeat
Assay type: toxicity, organism-based, Sprague-Dawley
Set-up: regimen Daily Repeat, gender Male, age 6-8 weeks
Conditions: in vivo, po, route oral GAVAGE, […]; for ABSOLUTE BASOPHIL / ABSOLUTE EOSINOPHIL / ABSOLUTE LYMPHOCYTE / ABSOLUTE MONOCYTE / ABSOLUTE SEGMENTED NEUTROPHIL / BASOPHIL / EOSINOPHIL / ERYTHROCYTE COUNT / HEMATOCRIT / HEMOGLOBIN / LEUKOCYTE COUNT / LYMPHOCYTE / MEAN CORPUSCULAR HEMOGLOBIN / MEAN CORPUSCULAR HEMOGLOBIN CONCENTRATION / MEAN CORPUSCULAR VOLUME / MONOCYTE / NEUTROPHIL / NUCLEATED RED BLOOD CELLS / PLATELET COUNT: tissue Blood; for ALANINE AMINOTRANSFERASE / ALBUMIN / ALKALINE PHOSPHATASE / ASPARTATE AMINOTRANSFERASE / BLOOD UREA NITROGEN / CARBON DIOXIDE / CHLORIDE / CHOLESTEROL / CREATINE PHOSPHOKINASE / CREATININE / GLUCOSE / LACTATE DEHYDROGENASE / LIPASE / PHOSPHORUS / POTASSIUM / SODIUM / TOTAL BILIRUBIN / TOTAL PROTEIN / URIC ACID: tissue Plasma
[1] = 50 mg/kg, 120 h, dose level Low, time 5 day
[2] = 175 mg/kg, 72 h, dose level High, time 3 day
[3] = 175 mg/kg, 120 h, dose level High, time 5 day

Compound: Oc1ncnc2[nH]ncc12 [ALLOPURINOL]
- ABSOLUTE BASOPHIL [1]: 0 CELLS/uL
- ABSOLUTE EOSINOPHIL [1]: 49 CELLS/uL
- ABSOLUTE LYMPHOCYTE [1]: 17802 CELLS/uL
- ABSOLUTE MONOCYTE [1]: 49 CELLS/uL
- ABSOLUTE SEGMENTED NEUTROPHIL [1]: 1133.33 CELLS/uL
- BASOPHIL [1]: 0%
- EOSINOPHIL [1]: 0.33%
- ERYTHROCYTE COUNT [1]: 5.63 x10E6/uL
- HEMATOCRIT [1]: 35.03%
- HEMOGLOBIN [1]: 13.73 G/DL
- LEUKOCYTE COUNT [1]: 19.03 x10E3/uL
- LYMPHOCYTE [1]: 93%
- MEAN CORPUSCULAR HEMOGLOBIN [1]: 24.47 pg
- MEAN CORPUSCULAR HEMOGLOBIN CONCENTRATION [1]: 39.27 G/DL
- MEAN CORPUSCULAR VOLUME [1]: 62.33 fL
- MONOCYTE [1]: 0.33%
- NEUTROPHIL [1]: 6.33%
- NUCLEATED RED BLOOD CELLS [1]: 0 /100WBC
- PLATELET COUNT [1]: 1236.33 x10E3/uL
- ALANINE AMINOTRANSFERASE [1]: 56.33 u/L
- ALBUMIN [1]: 3.97 G/DL
- ALKALINE PHOSPHATASE [1]: 308 u/L
- ASPARTATE AMINOTRANSFERASE [1]: 104 u/L
- BLOOD UREA NITROGEN [1]: 20 mg/dL
- CARBON DIOXIDE [1]: 27 mmol/L
- CHLORIDE [1]: 100 MEQ/L
- CHOLESTEROL [1]: 65.33 mg/dL
- CREATINE PHOSPHOKINASE [1]: 626 u/L
- CREATININE [1]: 0.41 mg/dL
- GLUCOSE [1]: 169.33 mg/dL
- LACTATE DEHYDROGENASE [1]: 263.33 u/L
- LIPASE [1]: 10 u/L
- PHOSPHORUS [1]: 9.7 mg/dL
- POTASSIUM [1]: 5.66 MEQ/L
- SODIUM [1]: 141.17 MEQ/L
- TOTAL BILIRUBIN [1]: 0.2 mg/dL
- TOTAL PROTEIN [1]: 5.6 G/DL
- URIC ACID [1]: 0.83 mg/dL
- ABSOLUTE BASOPHIL [2]: 0 CELLS/uL
- ABSOLUTE EOSINOPHIL [2]: 0 CELLS/uL
- ABSOLUTE LYMPHOCYTE [2]: 8294 CELLS/uL
- ABSOLUTE MONOCYTE [2]: 350.5 CELLS/uL
- ABSOLUTE SEGMENTED NEUTROPHIL [2]: 4205.5 CELLS/uL
- BASOPHIL [2]: 0%
- EOSINOPHIL [2]: 0%
- ERYTHROCYTE COUNT [2]: 5.27 x10E6/uL
- HEMATOCRIT [2]: 32.2%
- HEMOGLOBIN [2]: 12.95 G/DL
- LEUKOCYTE COUNT [2]: 12.85 x10E3/uL
- LYMPHOCYTE [2]: 64%
- MEAN CORPUSCULAR HEMOGLOBIN [2]: 24.55 pg
- MEAN CORPUSCULAR HEMOGLOBIN CONCENTRATION [2]: 40.3 G/DL
- MEAN CORPUSCULAR VOLUME [2]: 61.1 fL
- MONOCYTE [2]: 3%
- NEUTROPHIL [2]: 33%
- NUCLEATED RED BLOOD CELLS [2]: 0 /100WBC
- PLATELET COUNT [2]: 1127 x10E3/uL
- ALANINE AMINOTRANSFERASE [2]: 101 u/L
- ALBUMIN [2]: 3.9 G/DL
- ALKALINE PHOSPHATASE [2]: 397.5 u/L
- ASPARTATE AMINOTRANSFERASE [2]: 153.5 u/L
- BLOOD UREA NITROGEN [2]: 113.5 mg/dL
- CARBON DIOXIDE [2]: 24.5 mmol/L
- CHLORIDE [2]: 93 MEQ/L
- CHOLESTEROL [2]: 99 mg/dL
- CREATINE PHOSPHOKINASE [2]: 283.5 u/L
- CREATININE [2]: 3.31 mg/dL
- GLUCOSE [2]: 154.5 mg/dL
- LACTATE DEHYDROGENASE [2]: 217.5 u/L
- LIPASE [2]: 12 u/L
- PHOSPHORUS [2]: 16.65 mg/dL
- POTASSIUM [2]: 6.46 MEQ/L
- SODIUM [2]: 141.2 MEQ/L
- TOTAL BILIRUBIN [2]: 0.35 mg/dL
- TOTAL PROTEIN [2]: 6.55 G/DL
- URIC ACID [2]: 0.2 mg/dL
- ABSOLUTE BASOPHIL [3]: 0 CELLS/uL
- ABSOLUTE EOSINOPHIL [3]: 81.33 CELLS/uL
- ABSOLUTE LYMPHOCYTE [3]: 15570.33 CELLS/uL
- ABSOLUTE MONOCYTE [3]: 599.67 CELLS/uL
- ABSOLUTE SEGMENTED NEUTROPHIL [3]: 6148.67 CELLS/uL
- BASOPHIL [3]: 0%
- EOSINOPHIL [3]: 0.33%
- ERYTHROCYTE COUNT [3]: 5.7 x10E6/uL
- HEMATOCRIT [3]: 35.5%
- HEMOGLOBIN [3]: 13.77 G/DL
- LEUKOCYTE COUNT [3]: 22.4 x10E3/uL
- LYMPHOCYTE [3]: 69.33%
- MEAN CORPUSCULAR HEMOGLOBIN [3]: 24.17 pg
- MEAN CORPUSCULAR HEMOGLOBIN CONCENTRATION [3]: 38.8 G/DL
- MEAN CORPUSCULAR VOLUME [3]: 62.27 fL
- MONOCYTE [3]: 2.67%
- NEUTROPHIL [3]: 27.67%
- NUCLEATED RED BLOOD CELLS [3]: 0 /100WBC
- PLATELET COUNT [3]: 1373 x10E3/uL
- ALANINE AMINOTRANSFERASE [3]: 78.67 u/L
- ALBUMIN [3]: 3.73 G/DL
- ALKALINE PHOSPHATASE [3]: 409 u/L
- ASPARTATE AMINOTRANSFERASE [3]: 102 u/L
- BLOOD UREA NITROGEN [3]: 46.33 mg/dL
- CARBON DIOXIDE [3]: 26.33 mmol/L
- CHLORIDE [3]: 105.33 MEQ/L
- CHOLESTEROL [3]: 83.67 mg/dL
- CREATINE PHOSPHOKINASE [3]: 242.33 u/L
- CREATININE [3]: 1.36 mg/dL
- GLUCOSE [3]: 145 mg/dL
- LACTATE DEHYDROGENASE [3]: 182.33 u/L
- LIPASE [3]: 10.33 u/L
- PHOSPHORUS [3]: 7.7 mg/dL
- POTASSIUM [3]: 6.87 MEQ/L
- SODIUM [3]: 149 MEQ/L
- TOTAL BILIRUBIN [3]: 0.2 mg/dL
- TOTAL PROTEIN [3]: 5.87 G/DL
- URIC ACID [3]: 0.2 mg/dL
